In patent US8569481B2, “Capture compounds, collections thereof and methods for analyzing the proteome and complex compositions” (Pharmaceuticals, Inc., priority 2001, dated 2013):

Target: Cytochrome C (Bos taurus, UniProt P62894)
Assay: Time course reaction of cytochrome C with a non-specific capture compound, analyzed by MALDI-TOF mass spectrometry
Assay type: binding
Text: Four different capture compounds (designated HKC 1341 (2,5-dioxopyrrolidin-1-yl acetate), HKC 1343 (2,5-dioxopyrrolidin-1-yl 4-(hydroxybis(4-methoxyphenyl)methyl)benzoate), HKC 1349 (1-(4-((3-(2-hydroxyethoxy)phenyl)(phenyl)(3-phenylpropoxy)methyl)benzoyl)-1H-pyrrole-2,5-dione), and HKC 1365 (3-((4-((2,5-dioxopyrrolidin-1-yloxy)carbonyl)phenyl)diphenylmethoxy)propane-1,2-diyl dipalmitate)) were reacted individually with Cytochrome C (accession number: P00006, FIG. 20c). The capture experiments were analyzed using MALDI-TOF Mass Spectrometry. Binding was performed in 20 μL sample volumes with 5 μM Cytochrome C concentrations in 25 mM HEPES buffer solution, pH 7.0. The trityl-based capture compounds were added to the protein solution at a 10 μM concentration. […] The reaction was quenched using 1 μL of a 100 mM TRIZMA base solution. The capture compound-protein binding mixture was prepared for mass spectrometry analysis by mixing a 1 μL aliquot of the binding reaction with 1 μL of a 10 mg/mL sinapinic acid in 30% aqueous acetonitrile. The sample was deposited as a […] spot on the surface of mass target plates and subsequently air-dried before mass spectrometric analyses.

Sequence of Cytochrome C (P62894 whole entry): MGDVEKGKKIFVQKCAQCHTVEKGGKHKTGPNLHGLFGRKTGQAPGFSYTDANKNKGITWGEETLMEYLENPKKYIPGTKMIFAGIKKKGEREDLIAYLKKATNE

Which results are given for `CC(=O)ON1C(=O)CCC1=O` [HKC 1341, 2,5-dioxopyrrolidin-1-yl acetate]?
modifications of cytochrome C resulting from binding of the capture compound (after 30 minutes (middle spectrum, FIG. 20f)): 1-9; modifications of cytochrome C resulting from binding of the capture compound (time 0 (top spectrum, FIG. 20f)): no modification
